PMC12178155 (RSC Advances, 2025)

Assays:
EGFR = EGFR (Homo sapiens, UniProt P00533); experiment: in vitro EGFR inhibition; type: biochemical
tubulin = tubulin polymerization inhibition; type: biochemical; conditions: read-out: Tubulin polymerization IC50

Chain of EGFR (P00533 25-1210): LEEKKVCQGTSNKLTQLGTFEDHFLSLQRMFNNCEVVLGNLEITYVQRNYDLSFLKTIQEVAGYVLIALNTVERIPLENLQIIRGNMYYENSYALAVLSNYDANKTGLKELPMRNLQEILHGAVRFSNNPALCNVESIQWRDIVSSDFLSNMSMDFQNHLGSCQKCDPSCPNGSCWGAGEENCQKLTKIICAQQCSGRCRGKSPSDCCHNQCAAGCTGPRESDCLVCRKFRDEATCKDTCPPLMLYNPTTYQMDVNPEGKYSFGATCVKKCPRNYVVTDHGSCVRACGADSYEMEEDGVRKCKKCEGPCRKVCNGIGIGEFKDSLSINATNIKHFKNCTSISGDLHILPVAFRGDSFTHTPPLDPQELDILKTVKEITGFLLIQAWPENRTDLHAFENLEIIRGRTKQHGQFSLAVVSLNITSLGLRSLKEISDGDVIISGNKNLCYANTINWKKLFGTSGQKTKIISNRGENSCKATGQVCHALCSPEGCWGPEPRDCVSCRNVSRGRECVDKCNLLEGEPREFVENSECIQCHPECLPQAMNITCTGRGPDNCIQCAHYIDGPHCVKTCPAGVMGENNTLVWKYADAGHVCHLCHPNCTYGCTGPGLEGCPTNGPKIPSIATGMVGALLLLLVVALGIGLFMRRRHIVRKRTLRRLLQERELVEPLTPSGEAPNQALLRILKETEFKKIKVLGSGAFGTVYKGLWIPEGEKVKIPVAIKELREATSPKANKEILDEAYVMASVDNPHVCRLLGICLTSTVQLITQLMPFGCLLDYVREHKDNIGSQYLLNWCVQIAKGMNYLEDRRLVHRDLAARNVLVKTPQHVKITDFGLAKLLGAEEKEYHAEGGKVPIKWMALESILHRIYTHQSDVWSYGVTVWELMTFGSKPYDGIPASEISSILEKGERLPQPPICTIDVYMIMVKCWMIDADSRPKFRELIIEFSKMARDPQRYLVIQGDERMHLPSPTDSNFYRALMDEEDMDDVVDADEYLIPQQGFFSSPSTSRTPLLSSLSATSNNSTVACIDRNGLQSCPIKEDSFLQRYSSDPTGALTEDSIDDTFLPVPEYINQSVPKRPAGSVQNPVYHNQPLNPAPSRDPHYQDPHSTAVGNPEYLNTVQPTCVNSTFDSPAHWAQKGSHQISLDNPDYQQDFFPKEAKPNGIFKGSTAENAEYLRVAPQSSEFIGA

| IC50 (EGFR) [nM] | IC50 (tubulin) [nM] | Compound |
| --- | --- | --- |
| 90 ± 50 | 3850 ± 90 | O=C1Nc2ccc(Cl)cc2C12CC(c1ccc(O)cc1)=NN2 (stereo not drawn) [5a, 5-Chloro-5′-(4-hydroxyphenyl)-2′,4′-dihydrospiro[indoline-3,3′-pyrazol]-2-one] |
| 70 ± 90 | 4350 ± 110 | Nc1ccc(C2=NNC3(C2)C(=O)Nc2ccc(Cl)cc23)cc1 (stereo not drawn) [5b, 5′-(4-Aminophenyl)-5-chloro-2′,4′-dihydrospiro[indoline-3,3′-pyrazol]-2-one] |
| 80 ± 80 | – | COc1ccc(C2=NNC3(C2)C(=O)Nc2ccc(Cl)cc23)cc1 (stereo not drawn) [5c, 5-Chloro-5′-(4-methoxyphenyl)-2′,4′-dihydrospiro[indoline-3,3′-pyrazol]-2-one] |
| 40 ± 90 | – | O=C1Nc2ccc(Cl)cc2C12CC(c1ccc(Cl)cc1)=NN2 (stereo not drawn) [5d, 5-Chloro-5′-(4-chlorophenyl)-2′,4′-dihydrospiro[indoline-3,3′-pyrazol]-2-one] |

Further lines, the compound ahead of its results:

| Compound | IC50 (EGFR) [nM] | IC50 (tubulin) [nM] |
| --- | --- | --- |
| O=C1Nc2ccc(Cl)cc2/C1=C\C(=O)c1ccc(O)cc1 [4a, (E)-5-Chloro-3-(2-(4-hydroxyphenyl)-2-oxoethylidene)indolin-2-one] | 100 ± 70 | – |
| Nc1ccc(C(=O)C=C2C(=O)Nc3ccc(Cl)cc32)cc1 [4b] | 50 ± 60 | – |
| Tubulin polymerization inhibitor II [reference compound] | – | 4500 ± 130 |
